Here are results for one compound from patent US10265286B2, “Sequelae of cardiopulmonary bypass-induced pulmonary injury” (Vanderbilt University, priority 2016, dated 2019).

This assay relates to human vascular endothelial cells. Nature of the assay: Nitric oxide production by cultured human vascular endothelial cells (FIG. 23). The assay is classed as cell-based. Here is the method:
These agents were administered to cultured human vascular endothelial cells stimulated with acetylcholine. Measurement of nitric oxide was through a Seiver's system of nitrate/nitrites.

Take `N=C(N)NCCC[C@H](N)C(=O)O` [arginine]: under “applied directly to endothelial cell, very high concentrations (10 mM)”, the NO production result is “little sign of increased NO production”. Further, for the setting “cells stimulated with acetylcholine, nitrate/nitrites by Seiver's system”, the “production of nitric oxide” value is given as “no effect on the production of nitric oxide”.
